Here are results for 14 molecules from ChEMBL document CHEMBL3259515, “Further studies on ethyl 5-hydroxy-indole-3-carboxylate scaffold: design, synthesis and evaluation of 2-phenylthiomethyl-indole derivatives as efficient inhibitors of human 5-lipoxygenase” (Eur J Med Chem, 2014).

The source made the active and inactive calls. The calls are words filed in the database; no cut-off is given here.

Experiment [1] has as its target T1, Polyunsaturated fatty acid 5-lipoxygenase (Homo sapiens, UniProt P09917).
T1 sequence (P09917 whole entry): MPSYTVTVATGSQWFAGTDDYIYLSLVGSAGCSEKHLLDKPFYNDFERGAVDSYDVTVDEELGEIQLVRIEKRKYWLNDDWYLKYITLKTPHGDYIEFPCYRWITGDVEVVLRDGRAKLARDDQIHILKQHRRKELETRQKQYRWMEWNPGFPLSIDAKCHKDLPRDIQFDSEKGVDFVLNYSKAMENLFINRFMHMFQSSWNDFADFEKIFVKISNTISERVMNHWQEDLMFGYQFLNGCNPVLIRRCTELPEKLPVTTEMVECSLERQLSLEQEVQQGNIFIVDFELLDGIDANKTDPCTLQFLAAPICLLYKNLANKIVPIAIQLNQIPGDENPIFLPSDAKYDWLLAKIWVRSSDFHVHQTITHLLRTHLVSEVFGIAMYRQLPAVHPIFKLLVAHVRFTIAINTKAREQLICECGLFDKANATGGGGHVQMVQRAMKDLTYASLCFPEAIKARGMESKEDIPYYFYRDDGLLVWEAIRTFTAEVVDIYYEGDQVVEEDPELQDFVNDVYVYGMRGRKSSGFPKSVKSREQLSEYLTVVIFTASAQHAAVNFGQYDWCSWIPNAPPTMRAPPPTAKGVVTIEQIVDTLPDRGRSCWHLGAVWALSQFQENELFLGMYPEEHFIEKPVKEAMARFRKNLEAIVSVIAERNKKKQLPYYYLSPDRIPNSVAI
In words: Inhibition of human recombinant 5-LO expressed in Escherichia coli BL21 using arachidonic acid as substrate preincubated for 5 to 10 mins by HPLC analysis.

In experiment [2] the target is T2, Polyunsaturated fatty acid lipoxygenase ALOX12 (Homo sapiens) (UniProt P18054).
T2 sequence (whole entry): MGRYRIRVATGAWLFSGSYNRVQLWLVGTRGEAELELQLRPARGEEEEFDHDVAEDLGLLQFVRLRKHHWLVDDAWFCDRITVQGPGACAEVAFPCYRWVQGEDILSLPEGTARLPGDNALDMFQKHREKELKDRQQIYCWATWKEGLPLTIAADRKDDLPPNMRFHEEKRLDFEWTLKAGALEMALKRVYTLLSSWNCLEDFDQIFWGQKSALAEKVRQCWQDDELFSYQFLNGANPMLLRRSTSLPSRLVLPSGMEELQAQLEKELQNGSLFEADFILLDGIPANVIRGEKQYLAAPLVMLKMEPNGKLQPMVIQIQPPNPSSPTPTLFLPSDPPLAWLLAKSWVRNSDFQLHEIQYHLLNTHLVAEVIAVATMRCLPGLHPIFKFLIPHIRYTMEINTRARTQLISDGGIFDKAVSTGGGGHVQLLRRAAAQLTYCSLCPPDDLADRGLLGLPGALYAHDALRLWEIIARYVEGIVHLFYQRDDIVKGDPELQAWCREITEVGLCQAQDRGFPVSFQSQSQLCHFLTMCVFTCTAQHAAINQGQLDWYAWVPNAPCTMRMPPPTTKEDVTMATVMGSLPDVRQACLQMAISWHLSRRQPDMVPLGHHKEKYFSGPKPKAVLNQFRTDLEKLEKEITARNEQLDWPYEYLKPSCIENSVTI
The experiment is described as follows: Inhibition of 12-LO-mediated 12-H(P)ETE production in human polymorphonuclear leukocytes assessed as remaining activity preincubated at 10 uM for 15 mins by HPLC analysis. Format: cell-based.

Experiment [3] deals with T3, Polyunsaturated fatty acid lipoxygenase ALOX15 (Homo sapiens) (UniProt P16050).
T3 sequence (whole entry): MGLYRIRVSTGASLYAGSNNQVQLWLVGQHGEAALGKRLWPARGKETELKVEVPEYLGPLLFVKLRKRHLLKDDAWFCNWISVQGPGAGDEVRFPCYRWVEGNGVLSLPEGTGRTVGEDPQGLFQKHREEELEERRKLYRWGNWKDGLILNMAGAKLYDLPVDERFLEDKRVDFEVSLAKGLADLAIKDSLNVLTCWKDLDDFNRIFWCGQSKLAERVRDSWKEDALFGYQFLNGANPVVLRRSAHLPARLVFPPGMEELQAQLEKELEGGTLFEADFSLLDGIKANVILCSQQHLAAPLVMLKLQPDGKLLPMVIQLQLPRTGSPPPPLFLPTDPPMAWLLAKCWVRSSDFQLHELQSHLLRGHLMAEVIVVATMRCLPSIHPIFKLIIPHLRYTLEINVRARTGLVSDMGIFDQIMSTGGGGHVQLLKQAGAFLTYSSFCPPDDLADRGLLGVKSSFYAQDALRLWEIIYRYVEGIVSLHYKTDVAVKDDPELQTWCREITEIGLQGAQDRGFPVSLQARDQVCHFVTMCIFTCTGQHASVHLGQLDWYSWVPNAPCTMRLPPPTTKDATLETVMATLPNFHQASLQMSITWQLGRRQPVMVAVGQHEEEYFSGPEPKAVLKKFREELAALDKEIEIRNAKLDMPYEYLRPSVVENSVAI
In words: Inhibition of 15-LO-mediated 15-H(P)ETE production in human polymorphonuclear leukocytes assessed as remaining activity preincubated at 10 uM for 15 mins by HPLC analysis. It is filed as cell-based.

Experiment [4] addresses T1, Polyunsaturated fatty acid 5-lipoxygenase. In words: Inhibition of 5-LO in human polymorphonuclear leukocytes assessed as inhibition of LTB4 production from arachidonic acid preincubated for 15 mins by HPLC analysis. It is filed as cell-based.
Experiment [5] concerns the target T4, Prostaglandin G/H synthase 1 (Ovis aries) (UniProt P05979).
T4 sequence (whole entry): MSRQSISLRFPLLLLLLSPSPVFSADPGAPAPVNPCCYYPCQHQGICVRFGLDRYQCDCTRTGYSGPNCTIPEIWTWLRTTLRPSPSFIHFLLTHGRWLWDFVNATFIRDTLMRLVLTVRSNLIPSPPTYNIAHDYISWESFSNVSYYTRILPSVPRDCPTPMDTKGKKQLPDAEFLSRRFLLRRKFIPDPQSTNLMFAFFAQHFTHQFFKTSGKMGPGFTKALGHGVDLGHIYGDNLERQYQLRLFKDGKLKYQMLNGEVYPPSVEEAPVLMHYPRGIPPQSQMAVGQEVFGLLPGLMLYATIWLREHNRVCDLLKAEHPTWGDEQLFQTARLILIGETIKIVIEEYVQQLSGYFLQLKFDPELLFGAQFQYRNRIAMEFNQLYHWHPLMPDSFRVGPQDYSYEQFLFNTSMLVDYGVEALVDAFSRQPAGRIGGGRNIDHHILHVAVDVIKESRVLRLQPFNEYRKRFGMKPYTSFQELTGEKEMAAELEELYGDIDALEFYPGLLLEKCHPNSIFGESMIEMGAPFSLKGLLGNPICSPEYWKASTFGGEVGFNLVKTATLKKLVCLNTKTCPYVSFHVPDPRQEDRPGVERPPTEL
The experiment is described as follows: Inhibition of purified ovine COX1 preincubated for 5 mins by HPLC analysis.

Experiment [6] concerns the target T5, Prostaglandin G/H synthase 2 (Homo sapiens) (UniProt P35354).
T5 sequence (whole entry): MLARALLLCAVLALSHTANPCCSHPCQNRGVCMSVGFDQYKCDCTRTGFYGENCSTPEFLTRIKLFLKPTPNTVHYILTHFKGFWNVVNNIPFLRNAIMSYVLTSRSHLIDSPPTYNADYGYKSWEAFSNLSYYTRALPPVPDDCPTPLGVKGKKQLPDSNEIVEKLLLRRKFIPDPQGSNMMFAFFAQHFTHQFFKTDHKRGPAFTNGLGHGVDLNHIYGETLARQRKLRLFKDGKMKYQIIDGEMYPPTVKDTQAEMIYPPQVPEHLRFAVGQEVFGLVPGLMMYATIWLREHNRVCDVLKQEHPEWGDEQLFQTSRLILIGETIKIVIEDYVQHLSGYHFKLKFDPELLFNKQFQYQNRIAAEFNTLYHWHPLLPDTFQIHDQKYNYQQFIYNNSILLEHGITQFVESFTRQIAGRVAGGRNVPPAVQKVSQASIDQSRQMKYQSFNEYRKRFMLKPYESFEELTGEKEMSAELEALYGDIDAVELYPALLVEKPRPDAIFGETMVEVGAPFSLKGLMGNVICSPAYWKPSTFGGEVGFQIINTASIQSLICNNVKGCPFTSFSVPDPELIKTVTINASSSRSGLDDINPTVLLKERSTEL
In words: Inhibition of human recombinant COX2 preincubated for 5 mins by HPLC analysis.

Experiment [7] has as its target T6, Polyunsaturated fatty acid lipoxygenase ALOX15 (Homo sapiens, UniProt P16050).
T6 sequence (P16050 whole entry): T3 sequence (whole entry)
In words: Inhibition of 15-LO in human polymorphonuclear leukocytes assessed as inhibition of 15-H(P)ETE production from arachidonic acid preincubated for 15 mins by HPLC analysis. Format: cell-based.

On to `CCOC(=O)c1c(CSc2cc(C)cc(C)c2)n(C)c2ccc(O)cc12`, for which the IC50 in experiment [1] came out at 1800 nM; in experiment [4], 2700 nM. The Activity in experiment [2] amounted to 107%; in experiment [3] it was 150%.
Take `CCOC(=O)c1c(CSc2ccc(F)cc2F)n(C)c2ccc(O)cc12`: the half-maximal inhibitory concentration (IC50) came out at 3200 nM in experiment [1] and 6800 nM in experiment [4]. Further, the Activity in experiment [2] was determined as 91.4%; in experiment [3], 102%.
For the molecule `CCOC(=O)c1c(CSc2ccc(OC)cc2)n(C)c2ccc(O)cc12`, the concentration for half-maximal inhibition (IC50) stood at 2300 nM in experiment [1] and 3100 nM in experiment [4]. Also, the values for the Activity in experiment [2] and in experiment [3] were 92.1% and 128%, respectively.
For `CCOC(=O)c1c(CSc2ccccc2OC)n(C)c2ccc(O)cc12`, the 50% inhibitory concentration (IC50) in experiment [1] was determined as 2900 nM; in experiment [4], 5100 nM. In addition, the results for the Activity in experiment [2] and in experiment [3] were 108% and 136%, respectively.
Consider `CCOC(=O)c1c(CSc2ccccc2C(F)(F)F)n(C)c2ccc(O)cc12`, for which the figures for the IC50 in experiment [1] and in experiment [4] were 800 nM and 1200 nM, respectively. Moreover, the Activity in experiment [2] is 104%; in experiment [3], 126%.
In the same order, the values of `CCOC(=O)c1c(CSc2ccc(OC(F)(F)F)cc2)n(C)c2ccc(O)cc12` are 900 nM, 2100 nM, 94.1% and 107%.
Regarding `CCOC(=O)c1c(CSc2ccc(F)cc2)n(C)c2ccc(O)cc12`, the 50% inhibitory concentration (IC50) in experiment [1] is 5000 nM; in experiment [4] it was 9100 nM. For the same molecule, the figures for the Activity in experiment [2] and in experiment [3] were 100% and 120%, respectively.
Consider `CCOC(=O)c1c(CSc2cccc(Cl)c2)n(C)c2ccc(O)cc12`, for which the values for the IC50 in experiment [1] and in experiment [4] were 3800 nM and over 10000 nM, respectively. Also, the results for the Activity in experiment [2] and in experiment [3] were 92.9% and 114%, respectively.
With `CCOC(=O)c1c(CSc2c(C)cccc2C)n(C)c2ccc(O)cc12`, the results for the half-inhibitory concentration (IC50) in experiment [1] and in experiment [4] were 800 nM and 1200 nM, respectively. Also, the figures for the Activity in experiment [2] and in experiment [3] were 94.1% and 125%, respectively.
As for `CCOC(=O)c1c(CSc2ccccc2)n(C)c2ccc(O)cc12`, the 50% inhibitory concentration (IC50) in experiment [1] is 5700 nM; in experiment [4], 2400 nM. For the same molecule, the Activity in experiment [2] stood at 92.4%; in experiment [3] it was 130%.
`CCOC(=O)c1c(CSc2c(Cl)cccc2Cl)n(C)c2ccc(O)cc12`: the inhibition result in experiment [5] and in experiment [6] was “inactive” each time. In addition, the IC50 in experiment [1] turned out to be 800 nM; in experiment [4] it was 900 nM. Besides, the Activity in experiment [2] came to 103%; in experiment [3], 136%.
As for `CCOC(=O)c1c(CSc2c(C)cc(C)cc2C)n(C)c2ccc(O)cc12`, the IC50 is 8200 nM in experiment [7], 700 nM in experiment [1] and 230 nM in experiment [4]. In addition, the inhibition entry in experiment [5] and in experiment [6] was “inactive” throughout. The figures for the Activity in experiment [2] and in experiment [3] were 86.5% and 33%, respectively.
For `N#C/C(=C\c1ccc(O)c(O)c1)C(=O)OC/C=C/c1ccccc1`, the Activity turned out to be 5.6% in experiment [2] and 11.1% in experiment [3].
On to `CCOC(=O)c1c(CSc2ccc(C(F)(F)F)cc2)n(C)c2ccc(O)cc12`, for which the half-maximal inhibitory concentration (IC50) in experiment [1] is 4200 nM; in experiment [4] it was over 10000 nM. Besides, the Activity in experiment [2] was 102%; in experiment [3], 114%.
